From ChEMBL document CHEMBL1133646 (J Med Chem, 2000)

What was measured:
Format in all cases: functional
Mus musculus [1] = experiment: Mean day to death of mice at 0 mg/kg/day
Mus musculus [2] = experiment: Mean day to death of mice at 0.1 mg/kg/day
Mus musculus [3] = experiment: Survival rate of mice infected with A/Turkey/Mass/76 XA/Beijing/32/92 (H6N2) virus at a dose of 0 mg/kg/day; 1/9 (1 survived out of 9 mice)
Mus musculus [4] = experiment: Survival rate of mice infected with A/Turkey/Mass/76 XA/Beijing/32/92 (H6N2) virus at a dose of 0.1 mg/kg/day; 7/9 (7 survived out of 9 mice)
Mus musculus [5] = experiment: Survival rate of mice infected with A/Turkey/Mass/76 XA/Beijing/32/92 (H6N2) virus at a dose of 1.0 mg/kg/day; 9/9 (9 survived out of 9 mice)

## CCC(CC)[C@H](NC(C)=O)[C@@H]1[C@H](O)[C@@H](C(=O)O)C[C@H]1NC(=N)N [PERAMIVIR ANHYDROUS]
Mus musculus [1]
  Mean day: 8.8
Mus musculus [2]
  Mean day: 9
Mus musculus [3]
  Survival: 1
Mus musculus [4]
  Survival: <7
Mus musculus [5]
  Survival: <9
